From patent publication US9840500B2, “Compounds as dual inhibitors of histone methyltransferases and DNA methyltransferases” (FUNDACIÓN PARA LA INVESTIGACIÓN MÉDICA APLICADA, priority 2014, dated 2017) come the findings set out here.

One experiment concerns CEMO-1. Briefly: Cell proliferation assay, CEMO-1 (ALL). It is filed as cell-based, human. The settings on record: Homo sapiens; 48 hours of treatment; Table 3. The protocol:
(§1) Cell proliferation was analyzed after 48 hours of in vitro treatment using the CellTiter 96 Aqueous One Solution Cell Proliferation Assay (Promega, Madison, Wis.). This is a colorimetric method for determining the number of viable cells in proliferation.
(§2) For the assay, suspension cells were cultured by triplicate at a density of 1×10^6 cells/ml in 96-well plates (100.000 cells/well, 100 μl/well), except for OCILY-3 and OCILY-10 cell lines which were cultured at a density of 0.5×10^6 cells/ml (50.000 cells/well, 100 μl/well) and for HepG2, Hep3B and PLC/PRF/5 cell ines which were cultured at a density of 3000 cells/well, 100 μl/well). Adherent cells were obtained from 80-90% confluent flasks and 100 μl of cells were seeded at a density of 5000 cells/well in 96-well plates by triplicate. Before addition of the compounds, adherent cells were allowed to attach to the bottom of the wells for 12 hours. In all cases, only the 60 inner wells were used to avoid any border effects.
(§3) After 48 hours of treatment, plates with suspension cells were centrifuged at 800 g for 10 minutes and medium was removed. The plates with adherent cells were flicked to remove medium. Then, cells were incubated with 100 ul/well of medium and 20 ul/well of CellTiter 96 Aqueous One Solution reagent. After 1-3 hours of incubation at 37° C., absorbance was measured at 490 nm in a 96-well plate reader. The background absorbance was measured in wells with only cell line medium and solution reagent. Data was calculated as a percentage of total absorbance of treated cell/absorbance of non treated cells.

A further experiment deals with OCI-Ly3. Briefly: Cell proliferation assay, OCI-Ly3 (ABC-DLBCL). It is filed as cell-based. As to conditions: Homo sapiens, 48 hours of treatment, Table 3. The protocol: as §1, §2, §3
The next experiment deals with T1, human G9a enzyme (Homo sapiens, UniProt Q96KQ7).
T1 sequence (Q96KQ7 1-1210): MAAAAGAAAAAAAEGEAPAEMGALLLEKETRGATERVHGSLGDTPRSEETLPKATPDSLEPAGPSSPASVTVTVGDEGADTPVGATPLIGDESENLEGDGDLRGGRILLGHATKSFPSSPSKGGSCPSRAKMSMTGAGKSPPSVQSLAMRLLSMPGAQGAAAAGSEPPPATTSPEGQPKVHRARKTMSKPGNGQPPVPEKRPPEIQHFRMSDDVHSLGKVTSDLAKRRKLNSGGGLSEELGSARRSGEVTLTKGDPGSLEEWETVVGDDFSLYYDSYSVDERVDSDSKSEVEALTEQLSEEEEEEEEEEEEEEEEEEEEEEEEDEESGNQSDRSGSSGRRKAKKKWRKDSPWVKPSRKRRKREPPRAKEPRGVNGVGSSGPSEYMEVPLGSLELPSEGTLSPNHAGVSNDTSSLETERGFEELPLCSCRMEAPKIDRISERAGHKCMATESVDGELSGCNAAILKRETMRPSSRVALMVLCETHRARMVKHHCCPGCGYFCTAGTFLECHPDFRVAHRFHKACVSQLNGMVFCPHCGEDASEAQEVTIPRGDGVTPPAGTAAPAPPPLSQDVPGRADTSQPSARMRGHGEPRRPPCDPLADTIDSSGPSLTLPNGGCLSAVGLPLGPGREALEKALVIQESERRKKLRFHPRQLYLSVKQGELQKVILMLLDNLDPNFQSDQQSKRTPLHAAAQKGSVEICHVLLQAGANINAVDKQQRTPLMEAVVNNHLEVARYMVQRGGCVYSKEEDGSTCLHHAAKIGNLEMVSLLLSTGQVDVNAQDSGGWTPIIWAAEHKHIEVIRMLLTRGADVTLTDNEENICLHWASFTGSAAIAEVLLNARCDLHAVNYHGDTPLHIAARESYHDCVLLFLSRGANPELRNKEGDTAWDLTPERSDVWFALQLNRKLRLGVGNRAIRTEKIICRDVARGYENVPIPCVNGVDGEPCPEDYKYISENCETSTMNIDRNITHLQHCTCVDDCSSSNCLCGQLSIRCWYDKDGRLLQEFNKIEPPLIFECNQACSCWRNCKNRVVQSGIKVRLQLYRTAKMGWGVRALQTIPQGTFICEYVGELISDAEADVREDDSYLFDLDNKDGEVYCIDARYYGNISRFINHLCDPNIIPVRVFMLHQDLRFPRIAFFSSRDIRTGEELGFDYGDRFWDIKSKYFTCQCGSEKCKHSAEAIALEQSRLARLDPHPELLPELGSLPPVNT
The experiment is described as follows: G9a enzyme activity assay (TR-FRET). It is filed as biochemical. The procedure: The biochemical assay to measure G9a enzyme activity relies on time-resolved fluorescence energy transfer (TR-FRET) between europium cryptate (donor) and XL665 (acceptor). […] The human G9a enzyme expressed in a baculovirus infected Sf9 cell expression system was obtained from BPS Biosciences (Cat. #51001). […] Final percentage of DMSO was 0.5%. • 2 μl of 1 nM G9a enzyme diluted in assay buffer. […] Final concentration 150 nM. • Then, add 5 μl of streptavidin XL665 beads. Final concentration of 16 μM. • Read the plate after 1 hour of incubation at room temperature.
(§4) For each well, fluorescence was measured at 620 nm and 665 nm. A ratio (665 nm/620 nm) was then calculated in order to minimize medium interferences. Positive control was obtained in the presence of the vehicle of the compounds. Negative control was obtained in the absence of G9a enzyme activity. Calculated IC50 values were determined using GraphPrism using 4-parameters inhibition curve.
A general note: TR-FRET usually uses a lanthanide donor and a delayed reading to cut background.

For the next experiment, the target named is DNMT1 (Homo sapiens, UniProt P26358). The experiment is described as follows: DNMT1 enzyme activity assay (TR-FRET, EPIgeneous methyltransferase assay). It is filed as biochemical. The protocol: The biochemical assay to measure DNMT1 enzyme activity relies on time-resolved fluorescence energy transfer (TR-FRET) between lumi4-Tb (donor) and d2 (acceptor) using the EPIgeneous methyltransferase assay (CisBio Cat#62SAHPEB). […] TR-FRET signal is inversely proportional to the concentration of SAH, product of DNMT1 enzyme activity, in the sample.
DNMT1, sequence (P26358 whole entry): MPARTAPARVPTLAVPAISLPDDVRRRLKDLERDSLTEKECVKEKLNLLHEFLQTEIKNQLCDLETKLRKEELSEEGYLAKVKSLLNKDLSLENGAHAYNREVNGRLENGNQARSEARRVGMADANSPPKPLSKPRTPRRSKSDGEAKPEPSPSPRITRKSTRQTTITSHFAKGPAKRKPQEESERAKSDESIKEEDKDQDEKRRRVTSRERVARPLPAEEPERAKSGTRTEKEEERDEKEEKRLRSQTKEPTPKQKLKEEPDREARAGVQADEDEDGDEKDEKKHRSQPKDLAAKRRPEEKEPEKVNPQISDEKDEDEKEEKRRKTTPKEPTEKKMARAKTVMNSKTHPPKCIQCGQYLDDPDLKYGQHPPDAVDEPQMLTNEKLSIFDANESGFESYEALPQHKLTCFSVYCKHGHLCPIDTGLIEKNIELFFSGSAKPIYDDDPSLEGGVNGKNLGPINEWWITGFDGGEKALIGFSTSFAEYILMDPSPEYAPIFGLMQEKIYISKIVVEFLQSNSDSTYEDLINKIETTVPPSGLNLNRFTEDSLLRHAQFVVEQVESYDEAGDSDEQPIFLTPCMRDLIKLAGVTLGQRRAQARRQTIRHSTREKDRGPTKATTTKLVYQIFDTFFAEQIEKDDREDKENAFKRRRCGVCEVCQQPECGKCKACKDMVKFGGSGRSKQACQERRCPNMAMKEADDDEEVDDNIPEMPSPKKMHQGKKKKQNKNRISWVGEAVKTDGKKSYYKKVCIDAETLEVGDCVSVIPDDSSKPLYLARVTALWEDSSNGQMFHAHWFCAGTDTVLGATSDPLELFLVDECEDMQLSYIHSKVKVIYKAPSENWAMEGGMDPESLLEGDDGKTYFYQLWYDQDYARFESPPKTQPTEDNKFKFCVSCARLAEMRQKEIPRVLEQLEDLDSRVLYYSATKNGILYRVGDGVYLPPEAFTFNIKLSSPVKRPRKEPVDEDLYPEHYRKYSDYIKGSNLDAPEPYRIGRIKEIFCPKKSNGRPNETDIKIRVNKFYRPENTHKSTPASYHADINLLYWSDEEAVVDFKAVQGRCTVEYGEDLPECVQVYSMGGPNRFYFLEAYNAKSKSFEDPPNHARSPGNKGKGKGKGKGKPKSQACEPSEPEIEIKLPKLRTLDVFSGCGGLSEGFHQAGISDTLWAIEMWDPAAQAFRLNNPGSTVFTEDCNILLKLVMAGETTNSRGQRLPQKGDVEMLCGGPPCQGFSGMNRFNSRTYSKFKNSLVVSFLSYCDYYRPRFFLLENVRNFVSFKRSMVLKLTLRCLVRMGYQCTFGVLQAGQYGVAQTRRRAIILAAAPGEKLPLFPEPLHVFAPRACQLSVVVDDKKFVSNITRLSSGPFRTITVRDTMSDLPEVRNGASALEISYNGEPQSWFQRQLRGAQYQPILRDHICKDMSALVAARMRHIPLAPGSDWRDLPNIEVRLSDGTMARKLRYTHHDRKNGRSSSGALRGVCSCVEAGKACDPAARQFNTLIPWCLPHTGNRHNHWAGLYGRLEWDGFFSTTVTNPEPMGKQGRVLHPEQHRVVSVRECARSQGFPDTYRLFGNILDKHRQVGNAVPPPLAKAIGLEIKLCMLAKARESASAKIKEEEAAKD
The human DNMT1 was obtained from Reaction Biology Corp. (Cat# DMT-21-124). […] Final percentage of DMSO was 0.5%. • 2 μl of 1 nM DNMT1 enzyme diluted in assay buffer.
as §4

A further experiment has as its system HepG2. Briefly: Cell proliferation assay, HepG2 (HCC). As to conditions: Homo sapiens, 48 hours of treatment, Table 3. It is filed as cell-based. The procedure: as §1, §2, §3
Another experiment concerns Hep3B. The experiment is described as follows: Cell proliferation assay, Hep3B (HCC). As to conditions: Homo sapiens, 48 hours of treatment, Table 3. Format: cell-based. The procedure: as §1, §2, §3
Another experiment has as its system PLC/PRF/5. Briefly: Cell proliferation assay, PLC/PRF/5 (HCC). It is filed as cell-based. As to conditions: Homo sapiens, 48 hours of treatment, Table 3. The procedure:
as §1, §2, §3

pIC50: −log10 of the molar value.

Broadly, the GI50 is the concentration that inhibits growth by half. Compound `COc1cc2c(NC3CCCC3)cc(-c3ccc(C)o3)nc2cc1OCCCN1CCCC1` [Compound 3-05] registered a GI50 in the experiment on CEMO-1 of 100 to 1000 nM.

For the compound `COc1cc2c(NC3CCN(C)C(=O)C3)cc(-c3ccc(C)o3)nc2cc1OCCCN1CCCC1` (stereo not drawn) [Compound 3-17], the GI50 with OCI-Ly3 was in the range of 100 to 1000 nM.

In general, pIC50 refers to the negative decadic logarithm of the IC50, by convention in mol/L. A low value points to a high IC50. Take `COc1cc2c(NC3CCN(C)CC3)cc(-c3ccc(C)s3)nc2cc1OCCCN1CCCC1` [Compound 3-36]: the pIC50 against human G9a enzyme was more than 7.00; at DNMT1 it was 6.00 to 6.30. This compound also gave a GI50 in the experiment on CEMO-1 of 100 to 1000 nM.

In the case of `COc1cc2c(NCC3CCN(C)CC3)cc(-c3ccc(C)[nH]3)nc2cc1OCCCN1CCCC1` [Compound 3-39], the pIC50 at human G9a enzyme and on DNMT1 was more than 7.00 in each case. Further, in the experiment with CEMO-1, the 50% growth inhibitory concentration (GI50) fell in the range of 100 to 1000 nM.

Consider `CCc1ccc(-c2cc(NC3CC4(CCNCC4)C3)c3cc(OC)c(OCCCN4CCCC4)cc3n2)o1` [Compound 4-03, N-(7-azaspiro[3.5]nonan-2-yl)-2-(5-ethyl-2-furyl)-6-methoxy-7-(3-pyrrolidin-1-ylpropoxy)quinolin-4-amine:2,2,2-trifluoroacetic acid], for which the pIC50 against human G9a enzyme and on DNMT1 was more than 7.00 each time. The compound also gave a GI50 in the experiment on CEMO-1 of 1000 to 10000 nM.

The compound `COc1cc2c(NC3CCC34CCN(C)CC4)cc(-c3ccc(C)o3)nc2cc1OCCCN1CCCC1` (stereo not drawn) [Compound 5-01, 6-methoxy-N-(7-methyl-7-azaspiro[3.5]nonan-3-yl)-2-(5-methyl-2-furyl)-7-(3-pyrrolidin-1-ylpropoxy)quinolin-4-amine; 2,2,2-trifluoroacetic acid] yielded a concentration for 50% growth inhibition (GI50) with OCI-Ly3 of 100 to 1000 nM.

As to `COc1cc2c(NC3CC4(CCN(C)CC4)C3)cc(-c3ccc(C)[nH]3)nc2cc1OCCCN1CCCC1` [Compound 5-05, 6-methoxy-N-(7-methyl-7-azaspiro[3.5]nonan-2-yl)-2-(5-methyl-1H-pyrrol-2-yl)-7-(3-pyrrolidin-1-ylpropoxy)quinolin-4-amine; 2,2,2-trifluoroacetic acid], the pIC50 is more than 7.00 against human G9a enzyme and 6.30 to 7.00 on DNMT1. The same compound displayed a concentration for 50% growth inhibition (GI50) in the experiment with CEMO-1 of 1000 to 10000 nM.

As to `COc1cc2c(NC3CCN(C(C)C)CC3)cc(C3CCCCC3)nc2cc1OCCCN1CCCC1` [Compound 7-05, 2-cyclohexyl-N-(1-isopropyl-4-piperidyl)-6-methoxy-7-(3-pyrrolidin-1-ylpropoxy)quinolin-4-amine; 2,2,2-trifluoroacetic acid], the figures for the negative-log IC50 (pIC50) on human G9a enzyme and on DNMT1 were more than 7.00 and 6.00 to 6.30, respectively. Further, the GI50 in the experiment with CEMO-1, in the experiment on HepG2, in the experiment with Hep3B and in the experiment with PLC/PRF/5 was not above 10000 nM in each case.

Consider `COc1cc2c(NCC3CCN(C)CC3)cc(-c3ccc(C)o3)nc2cc1OCC1CCNCC1` [Compound 11-02], for which the negative-log IC50 (pIC50) against human G9a enzyme and against DNMT1 was 6.30 to 7.00 in each case. The same compound gave a 50% growth inhibitory concentration (GI50) in the experiment with CEMO-1 of 1000 to 10000 nM.

In the case of `COc1cc2c(NC3CCN(C)CC3)cc(-c3ccc(C)[nH]3)nc2cc1OCC1CCNCC1` [Compound 11-05], the negative logarithm of the IC50 (pIC50) against human G9a enzyme was more than 7.00; against DNMT1, 6.30 to 7.00. The GI50 in the experiment on CEMO-1, with HepG2, in the experiment on Hep3B and in the experiment with PLC/PRF/5 was not above 10000 nM each time.

Consider `COc1cc2c(NC3CC4(CCNCC4)C3)cc(-c3ccc(C)[nH]3)nc2cc1OCC1CCNCC1` [Compound 11-09], for which the pIC50 against human G9a enzyme and at DNMT1 was 6.30 to 7.00 each time.

For the compound `COc1cc2c(NC3CC4(CCNCC4)C3)cc(-c3ccc(C)o3)nc2cc1OCC1CCNCC1` [Compound 11-10], the values for the pIC50 against human G9a enzyme and against DNMT1 were 5.00 to 6.00 and 6.30 to 7.00, respectively.

As for `COc1cc2c(NC3CCN(C)C(=O)C3)cc(-c3ccc(C)[nH]3)nc2cc1OCC1CCNCC1` (stereo not drawn) [Compound 11-11], the pIC50 against human G9a enzyme and at DNMT1 was 6.00 to 6.30 in each case.

For the compound `COc1cc2c(NC3CCN(C)C(=O)C3)cc(-c3ccc(C)[nH]3)nc2cc1OCC1CCN(C)CC1` (stereo not drawn) [Compound 12-04], the negative logarithm of the IC50 (pIC50) was 5.00 to 6.00 at human G9a enzyme and 6.00 to 6.30 against DNMT1.

As for `Cc1ccc(-c2cc(NC3CCN(C)CC3)c3cc(OCC(F)(F)F)c(OCCCN4CCCC4)cc3n2)o1` [Compound 13-01, 2-(5-methyl-2-furyl)-N-(1-methyl-4-piperidyl)-7-(3-pyrrolidin-1-ylpropoxy)-6-(2,2,2-trifluoroethoxy)quinolin-4-amine; 2,2,2-trifluoroacetic acid], the negative logarithm of the IC50 (pIC50) against human G9a enzyme and against DNMT1 was 6.00 to 6.30 in each case.

Consider `COc1cc2c(NC3CCN(C)CC3)cc(C3CCC(C)O3)nc2cc1OCCCN1CCCC1` (stereo not drawn) [Compound 15-01, 6-methoxy-N-(1-methyl-4-piperidyl)-2-(5-methyltetrahydrofuran-2-yl)-7-(3-pyrrolidin-1-ylpropoxy)quinolin-4-amine; 2,2,2-trifluoroacetic acid], for which the figures for the pIC50 against human G9a enzyme and against DNMT1 were more than 7.00 and 5.00 to 6.00, respectively.

As to `CCc1ccc(-c2cc(NC3CC4(CCN(C5CC5)CC4)C3)c3cc(OC)c(OCCCN4CCCC4)cc3n2)o1` [Compound 19-01, N-(7-cyclopropyl-7-azaspiro[3.5]nonan-2-yl)-2-(5-ethyl-2-furyl)-6-methoxy-7-(3-pyrrolidin-1-ylpropoxy)quinolin-4-amine; 2,2,2-trifluoroacetic acid], the pIC50 against human G9a enzyme was 5.00 to 6.00; at DNMT1, 6.00 to 6.30.

With `CCc1ccc(-c2cc(NC3CCC34CCN(C3CC3)CC4)c3cc(OC)c(OCCCN4CCCC4)cc3n2)o1` (stereo not drawn) [Compound 19-02, N-(7-cyclopropyl-7-azaspiro[3.5]nonan-3-yl)-2-(5-ethyl-2-furyl)-6-methoxy-7-(3-pyrrolidin-1-ylpropoxy)quinolin-4-amine; 2,2,2-trifluoroacetic acid], the pIC50 against human G9a enzyme was 6.00 to 6.30; against DNMT1, 6.30 to 7.00.

On to `COc1cc2c(NC3CCN(C)CC3)cc(-c3ccc(C)o3)nc2cc1OC1CCN(C(=O)OC(C)(C)C)CC1` [Compound 19-03], for which the pIC50 against human G9a enzyme and on DNMT1 was 5.00 to 6.00 throughout.
